Test results taken from US9056876B2, “Substituted 1H-pyrazolo[3′,4′,4,5]thieno[2,3-b]pyridin-3-amine analogs as positive allosteric modulators of the muscarinic acetylcholine receptor M4” (VANDERBILT UNIVERSITY, priority 2011, dated 2015).

Target: T1, mAChR M4 (UniProt P08173)
T1 construct: hM1 and hM4 cDNAs were purchased from Missouri S&T cDNA Resource
T1 sequence (P08173 1-479): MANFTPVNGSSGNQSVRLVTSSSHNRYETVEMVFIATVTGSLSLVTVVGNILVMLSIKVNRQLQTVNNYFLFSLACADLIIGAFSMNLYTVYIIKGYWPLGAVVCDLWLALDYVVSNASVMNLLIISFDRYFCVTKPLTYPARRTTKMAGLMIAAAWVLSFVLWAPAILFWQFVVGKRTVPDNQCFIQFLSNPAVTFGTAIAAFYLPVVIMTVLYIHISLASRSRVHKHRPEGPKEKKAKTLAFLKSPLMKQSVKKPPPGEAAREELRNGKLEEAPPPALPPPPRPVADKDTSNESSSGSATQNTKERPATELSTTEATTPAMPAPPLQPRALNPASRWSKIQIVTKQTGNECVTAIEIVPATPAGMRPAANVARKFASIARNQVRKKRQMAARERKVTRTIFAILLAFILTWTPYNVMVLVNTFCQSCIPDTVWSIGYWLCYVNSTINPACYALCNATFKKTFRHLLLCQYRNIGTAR
Assay: mAChR M4 cell-based functional assay (calcium mobilization, Fluo-4, FDSS)
Details: for Emax (%)*: % ACh maximum at 30 μM; for pEC50: positive allosteric modulator activity, EC20 acetylcholine response; for pEC50 / EC50: CHO-K1 cells; for EC50: positive allosteric modulator activity: concentration-dependent increase in the EC20 acetylcholine response, >10 μM estimated for low potency (no plateau)
Source text: Chinese hamster ovary (CHO-K1) cells stably expressing rat (r)M1 were purchased from the American Type Culture Collection and cultured according to their indicated protocol. CHO cells stably expressing human (h)M2, hM3, and hM5 were described previously (Levey A I, et al., (1991) J Neurosci 11:3218-3226.); hM1 and hM4 cDNAs were purchased from Missouri S&T cDNA Resource; rM4 cDNA was provided by T. I. Bonner (National Institutes of Health, Bethesda, Md.). rM2 and rM3 were cloned from a rat brain cDNA library and sequence verified. hM1, rM2, rM3, hM4, and rM4 cDNAs were used to stably transfect CHO-K1 cells purchased from the American Type Culture Collection using Lipofectamine-2000. To make stable rM2, hM2, rM3, hM4, and rM4 cell lines for use in calcium mobilization assays, these cells also were stably transfected with a chimeric G-protein (Gqi5) (provided by B. R. Conklin, University of California, San Francisco) using Lipofectamine 2000. rM1, hM1, rM3, hM3, rM5, and hM5 cells were grown in Ham's F-12 medium containing 10% heat-inactivated fetal bovine serum (FBS), 20 mM HEPES, and 50 µg/mL G418 sulfate. rM2-Gqi5, hM2-Gqi5, and hM4-Gqi5 cells were grown in the same medium also containing 500 µg/mL Hygromycin B. Stable rM4-Gqi5 cells were grown in DMEM containing 10% heat-inactivated FBS, 20 mM HEPES, 400 µg/mL G418 sulfate, and 500 µg/mL Hygromycin B.
For high throughput measurement of agonist-evoked increases in intracellular calcium, CHO-K1 cells stably expressing the target muscarinic receptor were plated in growth medium lacking G418 and hygromycin at 15,000 cells/20 μL/well in Greiner 384-well black-walled, tissue culture (TC)-treated, clear-bottom plates (VWR). Cells were incubated overnight at 37° C. and 5% CO2. The next day, cells were washed using an ELX 405 (BioTek) with four washes (80 μL) of assay buffer then aspirated to 20 μL. Next, […] of 16 μM Fluo-4/acetoxymethyl ester (Invitrogen, Carlsbad, Calif.) prepared as a 2.3 mM stock in DMSO and mixed in a 1:1 ratio with 10% (w/v) Pluronic F-127 and diluted in assay buffer was added to the wells and the cell plates were incubated for 50 min at 37° C. and 5% CO2. Dye was removed by washing with the ELX 405 (four 80 μL washes of assay buffer) then aspirated to 20 μL. Compound master plates were formatted in an 11 point CRC format (1:3 dilutions) in 100% DMSO with a starting concentration of 10 mM using the BRAVO liquid handler (Agilent). Test compound CRCs were then transferred to daughter plates (240 nL) using the Echo acoustic plate reformatter (Labcyte, Sunnyvale, Calif.) and then diluted into assay buffer (40 μL) to a 2× stock using a Thermo Fisher Combi (Thermo Fisher Scientific, Waltham, Mass.).
Calcium flux was measured using the Functional Drug Screening System (FDSS) 6000 (Hamamatsu Corporation, Tokyo, Japan) as an increase in the fluorescent static ratio. Compounds were applied to cells (20 μL, 2×) using the automated system of the FDSS 6000 at 4 s into the 300 s protocol and the data were collected at 1 Hz. At 144 s into the 300 s protocol, 10 μL of an EC20 concentration of the muscarinic receptor agonist acetylcholine was added (5×), followed by the addition of 12 μL an EC80 concentration of acetylcholine at the 230 s time point (5×). Agonist activity was analyzed as a concentration-dependent increase in calcium mobilization upon compound addition. Positive allosteric modulator activity was analyzed as a concentration-dependent increase in the EC20 acetylcholine response. Antagonist activity was analyzed as a concentration-dependent decrease in the EC80 acetylcholine response. Concentration-response curves were generated using a four-parameter logistical equation in XLfit curve fitting software (IDBS, Bridgewater, N.J.) for Excel (Microsoft, Redmond, Wash.) or Prism (GraphPad Software, Inc., San Diego, Calif.). […]

Row | Emax (%)* [%] | pEC50 | EC50 [µM] | Compound
1 | 44 | <5.00 | > 10 | Cc1cc(C)c2c(n1)sc1c(NC(=O)C3CC3)nn(C)c12 [Compound 46, N-(1,6,8-trimethyl-1H-pyrazolo[3′,4′:4,5]thieno[2,3-b]pyridin-3-yl)cyclopropanecarboxamide]
2 | 43 | 5.54 | 2.9 | CCC(=O)Nc1nn(C)c2c1sc1nc(C)cc(C)c12 [Compound 47, N-(1,6,8-trimethyl-1H-pyrazolo[3′,4′:4,5]thieno[2,3-b]pyridin-3-yl)propionamide]
3 | 38 | <5.00 | > 10 | COc1cc(OC)cc(C(C)Nc2nn(C)c3c2sc2nc(C)cc(C)c23)c1 (stereo not drawn) [Compound 48, N-(1-(3,5-dimethoxyphenyl)ethyl)-1,6,8-trimethyl-1H-pyrazolo[3′,4′:4,5]thieno[2,3-b]pyridin-3-amine]
4 | 37 | 5.47 | 3.4 | Cc1ccc2c(n1)sc1c(NCc3ccc(Cl)cc3)n[nH]c12 [Compound 49, N-(4-chlorobenzyl)-6-methyl-1H-pyrazolo[3′,4′:4,5]thieno[2,3-b]pyridin-3-amine]
5 | 57 | 5.60 | 2.5 | Cc1ccc2c(n1)sc1c(NCc3ccccc3)n[nH]c12 [Compound 50, N-benzyl-6-methyl-1H-pyrazolo[3′,4′:4,5]thieno[2,3-b]pyridin-3-amine]
6 | 73 | 5.89 | 1.3 | Cc1ccc2c(n1)sc1c(NCC3CC3)nn(C)c12 [Compound 51, N-(cyclopropylmethyl)-1,6-dimethyl-1H-pyrazolo[3′,4′:4,5]thieno[2,3-b]pyridin-3-amine]
7 | 64 | 5.82 | 1.5 | Cc1ccc2c(n1)sc1c(NCc3ccco3)nn(C)c12 [Compound 52, N-(furan-2-ylmethyl)-1,6-dimethyl-1H-pyrazolo[3′,4′:4,5]thieno[2,3-b]pyridin-3-amine]
8 | 70 | 6.08 | 0.84 | Cc1ccc2c(n1)sc1c(NCc3ccccc3)nn(C)c12 [Compound 53, N-benzyl-1,6-dimethyl-1H-pyrazolo[3′,4′:4,5]thieno[2,3-b]pyridin-3-amine]
9 | 71 | 6.06 | 0.88 | Cc1ccc2c(n1)sc1c(NCCC(C)C)nn(C)c12 [Compound 54, N-isopentyl-1,6-dimethyl-1H-pyrazolo[3′,4′:4,5]thieno[2,3-b]pyridin-3-amine]
10 | 63 | 6.02 | 0.96 | COc1ccc(CNc2nn(C)c3c2sc2nc(C)ccc23)cc1 [Compound 55, N-(4-methoxybenzyl)-1,6-dimethyl-1H-pyrazolo[3′,4′:4,5]thieno[2,3-b]pyridin-3-amine]
11 | 56 | <5.00 | > 10 | Cc1ccc2c(n1)sc1c(NCc3ccc(Cl)cc3)nn(C)c12 [Compound 56, N-(4-chlorobenzyl)-1,6-dimethyl-1H-pyrazolo[3′,4′:4,5]thieno[2,3-b]pyridin-3-amine]
12 | 70 | 6.72 | 0.19 | Cc1cc(C)c2c(n1)sc1c(NCc3ccccc3F)nn(C)c12 [Compound 57, N-(2-fluorobenzyl)-1,6,8-trimethyl-1H-pyrazolo[3′,4′:4,5]thieno[2,3-b]pyridin-3-amine]
13 | 37 | <5.00 | > 10 | Cc1cc(C)cc(CNc2nn(C)c3c2sc2nc(C)cc(C)c23)c1 [Compound 58, N-(3,5-dimethylbenzyl)-1,6,8-trimethyl-1H-pyrazolo[3′,4′:4,5]thieno[2,3-b]pyridin-3-amine]
14 | 57 | 5.60 | 2.5 | Cc1ccc(CNc2nn(C)c3c2sc2nc(C)cc(C)c23)c(C)c1 [Compound 59, N-(2,4-dimethylbenzyl)-1,6,8-trimethyl-1H-pyrazolo[3′,4′:4,5]thieno[2,3-b]pyridin-3-amine]
15 | 63 | <5.00 | > 10 | Cc1cc(C)c2c(n1)sc1c(NCc3ccc(F)c(F)c3)nn(C)c12 [Compound 60, N-(3,4-difluorobenzyl)-1,6,8-trimethyl-1H-pyrazolo[3′,4′:4,5]thieno[2,3-b]pyridin-3-amine]
16 | 33 | 6.35 | 0.45 | COc1ccc(CNc2nn(C)c3c2sc2nc(C)cc(C)c23)c(OC)c1 [Compound 61, N-(2,4-dimethoxybenzyl)-1,6,8-trimethyl-1H-pyrazolo[3′,4′:4,5]thieno[2,3-b]pyridin-3-amine]
17 | 74 | 6.19 | 0.64 | Cc1ccnc2sc3c(NCc4ccncc4)nn(C)c3c12 [Compound 62, 1,8-dimethyl-N-(pyridin-4-ylmethyl)-1H-pyrazolo[3′,4′:4,5]thieno[2,3-b]pyridin-3-amine]
18 | 80 | 5.77 | 1.7 | COc1ccc(CNc2nn(C)c3c2sc2nccc(C)c23)cc1 [Compound 63, N-(4-methoxybenzyl)-1,8-dimethyl-1H-pyrazolo[3′,4′:4,5]thieno[2,3-b]pyridin-3-amine]
19 | 83 | 6.85 | 0.14 | Cc1cc(C)c2c(n1)sc1c(NC3CCCC3)nn(C)c12 [Compound 64, N-cyclopentyl-1,6,8-trimethyl-1H-pyrazolo[3′,4′:4,5]thieno[2,3-b]pyridin-3-amine]
20 | 78 | 6.00 | 1 | Cc1cc(C)c2c(n1)sc1c(NC3CCOCC3)nn(C)c12 [Compound 65, 1,6,8-trimethyl-N-(tetrahydro-2H-pyran-4-yl)-1H-pyrazolo[3′,4′:4,5]thieno[2,3-b]pyridin-3-amine]
21 | 73 | 5.92 | 1.2 | Cc1cc(C)c2c(n1)sc1c(NC3CCCCC3)nn(C)c12 [Compound 66, N-cyclohexyl-1,6,8-trimethyl-1H-pyrazolo[3′,4′:4,5]thieno[2,3-b]pyridin-3-amine]
22 | 80 | 5.96 | 1.1 | Cc1ccc2c(n1)sc1c(NCc3ccncc3)nn(C)c12 [Compound 67, 1,6-dimethyl-N-(pyridin-4-ylmethyl)-1H-pyrazolo[3′,4′:4,5]thieno[2,3-b]pyridin-3-amine]
